Entries after “also recorded” stand apart in the source; their conditions may differ. Read-outs that look alike come from different tables or passages of the source.
Key:
[1] = system: mice; format: in vivo; details: for % MPE for acute morphine: acute morphine 3 mg/kg s.c. on day five
[2] = system: mice; format: in vivo, male CD-1 mice
[3] = system: mice; assay: hot plate, morphine-induced antinociceptive tolerance (Examples 3-5); format: in vivo, Male CD-1 mice; details: for % MPE: n=6
Protocol: Nociceptive thresholds were determined by measuring latencies (in seconds) of mice placed in a transparent glass cylinder on a hot plate (Ugo Basile, Italy) maintained at 52° C. Determination of antinociception was assessed between 7 and 10:00 A.M. All injections were given intra-peritoneally (i.p.) or subcutaneously (s.c.) in a volume of 0.1 and 0.3 ml, respectively, at approximately 7 A.M. and 4 P.M. Responses indicative of nociception included intermittent lifting and/or licking of the hindpaws or escape behavior. […] Results were expressed as percentage of maximum possible antinociceptive effect, which was calculated as follows: (response latency−baseline latency)/(cut-off latency−baseline latency)×100. A cut-off latency of twenty seconds was employed to prevent tissue damage. Ten mice per group were used and all experiments were conducted with the experimentors blinded to treatment conditions. […] The following experimental groups were used: […]
Vehicle (V) Group: In this group, mice were injected twice per day for four days with an i.p, injection of saline and a s.c. injection of saline.

[4] = system: ceramide synthase; assay: ceramide synthase activity in spinal cord homogenates; format: in vivo, mice
Protocol: About 60 to 80 mg of spinal cord homogenates were incubated with [^3H]-palmytic acid (2.5 μCi/ml, GE Healthcare, England) for one hour. Lipids were extracted with ice-cold methanol containing 2% acetic acid and 5% chloroform and resolved using thin-layer chromatography. Lipids co-migrating with standards were scraped and quantified by […] counting as described elsewhere (Castillo et al., 2007).

[5] = system: manganese superoxide dismutase (MnSOD); assay: MnSOD nitration by immunoprecipitation and western blot; format: in vivo, mice
Protocol: Animals were rapidly sacrificed (<1 min) in a CO2 chamber and the dorsal portion of the spinal cord lumbar region enlargement removed and stored at −80° C. until used. Cytosolic and nuclear extracts were prepared as previously described (Bethea et al., 1998), with minor modifications. Tissues from each mouse were suspended in extraction Buffer A (0.2 mM PMSF, […], 20 μM leupeptin, 1 mM sodium orthovanadate), homogenized for two minutes, and centrifuged at 1,000×g for ten minutes at 4° C. Supernatants were collected as the cytosolic fraction. […] The levels of IκB-α, phospho-NF-κB p65 (serine 536), were quantified in cytosolic fraction from spinal cord tissue, while NF-κB p65 levels were quantified in nuclear fraction. […] Manganese superoxide dismutase (MnSOD) nitration was determined with western blot analysis of immunoprecipitated protein complex in total lysates using antibodies specific to these proteins. […] The relative expression of the protein levels as the band density for IκB-α (˜37 kDa), phospho NF-κB (65 kDa), NF-κB p65 (75 kDa), MnSOD (˜29 kDa), GFAP (˜50 kDa), and Iba1(˜17 kDa) was quantified by scanning of the X-ray films with GS-700 Imaging Densitometer (BIO-RAD U.S.A.) and a computer program (Molecular Analyst, IBM).

[6] = system: GFAP; assay: spinal expression of GFAP (astrocyte activation); format: in vivo, mice; details: for GFAP immunoreactivity in superficial layers of the dorsal horn: micrographs
Protocol: Animals were rapidly sacrificed (<1 min) in a CO2 chamber and the dorsal portion of the spinal cord lumbar region enlargement removed and stored at −80° C. until used. Cytosolic and nuclear extracts were prepared as previously described (Bethea et al., 1998), with minor modifications. Tissues from each mouse were suspended in extraction Buffer A (0.2 mM PMSF, […], 20 μM leupeptin, 1 mM sodium orthovanadate), homogenized for two minutes, and centrifuged at 1,000×g for ten minutes at 4° C. Supernatants were collected as the cytosolic fraction. The pellets containing nuclei were re-suspended in Buffer B (1% Triton X-100, 150 mM NaCl, 10 mM TRIS-HCl pH 7.4, 1 mM EGTA, 1 mM EDTA, 0.2 mM PMSF, 20 μm leupeptin, 0.2 mM sodium orthovanadate). After centrifugation for thirty minutes at 15,000×g at 4° C., the supernatants were collected as nuclear extracts and then stored at […] for further analysis. The levels of IκB-α, phospho-NF-κB p65 (serine 536), were quantified in cytosolic fraction from spinal cord tissue, while NF-κB p65 levels were quantified in nuclear fraction.

[7] = system: Iba1; assay: spinal expression of Iba1 (microglia activation); format: in vivo, mice; details: for Iba1 immunoreactivity in superficial layers of the dorsal horn: micrographs
[8] = system: ceramide; assay: immunohistochemistry for ceramide in spinal cord (Example 3)
[9] = acute morphine in tolerant mice vs vehicle
[10] = morphine plus FB1 1 mg/kg/d, n=5, ±SEM

SMILES: CN1CC[C@]23c4c5ccc(O)c4O[C@H]2[C@@H](O)C=C[C@H]3[C@H]1C5 [morphine]
- % MPE for acute morphine ([1]; Control group (saline over four days)): 93±8 % MPE
- % MPE for acute morphine ([1]; Morphine group (morphine 2×10 mg/kg/day over four days)): 20±14 % MPE
- antinociceptive effect ([1]; acute morphine 3 mg/kg subcutaneously, forty minutes after dose, hot plate 52° C., n=8): 99±2%
- % MPE for acute morphine ([2]; Morphine groups (morphine 50 mg/kg by osmotic minipump), acute morphine 3 mg/kg i.p., tail flick): 15±4 % MPE
- % MPE for acute morphine ([2]; control groups (saline minipump), acute morphine 3 mg/kg i.p., tail flick, day six): 90±5 % MPE
- percent maximal possible antinociceptive effect ([3]; acute morphine 3 mg/kg in vehicle group (saline over four days), hot plate): 90-95%
- % MPE ([3]; morphine group (tolerant), acute morphine 3 mg/kg on day five): 10±2%
- development of antinociceptive tolerance ([3]; repeated administration of morphine (20 mg/kg/d) over four days): led to the development of antinociceptive tolerance
- % MPE ([3]; vehicle group (saline four days), acute morphine 3 mg/kg on day five): 96±3%
- enzymatic activity of ceramide synthase (CS) ([4]; repeated morphine, tolerant mice vs vehicle): increased enzymatic activity
- post-translational nitration of MnSOD ([5]; mouse, in vivo): 850±70 densitometry units
- GFAP immunoreactivity in superficial layers of the dorsal horn [6, 9]: increased
- spinal expression of GFAP ([6]; morphine group, n=5): 7343.95±0.527 densitometry units
- Iba1 immunoreactivity in superficial layers of the dorsal horn [7, 9]: increased
- spinal expression of IBa1 ([7]; morphine group, n=5, ±SEM): 541.29±0.073 densitometry units
- ceramide staining in dorsal horn, immunohistochemistry ([8]; repeated morphine, day five): appearance of ceramide in the superficial layers of the dorsal horn; also recorded: marked appearance of positive staining for ceramide

SMILES: CCCC[C@@H](C)[C@@H](OC(=O)C[C@@H](CC(=O)O)C(=O)O)[C@H](C[C@@H](C)C[C@H](O)CCCC[C@@H](O)C[C@H](O)[C@H](C)N)OC(=O)C[C@@H](CC(=O)O)C(=O)O [FB1, Fumonisin B1]
- responses to acute morphine in control groups vs control groups treated with drug ([1]; Control+Drug groups, no repeated morphine): similar
- development of antinociceptive tolerance ([1]; co-administration with morphine, i.p., FB1 1 mg/kg, myriocin 0.2 mg/kg, D609 40 mg/kg): prevented the development of antinociceptive tolerance
- antinociceptive effects when tested alone ([1]; drug alone (not shown)): no antinociceptive effects
- % MPE for acute morphine ([2]; Mor+FB1 groups, FB1 1 mg/kg/day i.p. for six days with morphine minipump): 87±4 % MPE
- % MPE for acute morphine ([2]; control+FB1 groups, FB1 1 mg/kg/day i.p., saline minipump): 85±6 % MPE
- development of tolerance, dose-dependence ([3]; co-administered with morphine, FB1 0.1-1 mg/kg/d, myriocin 0.1-0.4 mg/kg/d, D609 10-40 mg/kg/d, n=10): attenuated in a dose-dependent manner
- hot plate latencies following s.c. saline ([3]; day five, highest dose of drug, no morphine, n=10): six and seven
- difference in responses to acute morphine (0.3-3 mg/kg), drug vs vehicle ([3]; highest dose over five days: FB1 1 mg/kg/d, myriocin 0.4 mg/kg/d, D609 40 mg/kg/d, n=10): statistically insignificant
- antinociceptive effects when tested alone ([3]; highest dose, alone): none of FB1, myriocin, or D609 had antinociceptive effects
- % MPE ([3]; tolerant mice, single i.p. dose fifteen minutes before acute morphine 3 mg/kg: FB1 1 mg/kg, myriocin 0.4 mg/kg, D609 40 mg/kg): 7±3%
- increase in CS activity ([4]; co-administration of morphine with FB1 1 mg/kg/d, n=10): attenuated as expected the increase in CS activity
- post-translational nitration of MnSOD [5, 10]: 350±45 densitometry units
- GFAP immunoreactivity in superficial layers of the dorsal horn ([6]; 1 mg/kg/d of FB1 with morphine): blocked
- spinal expression of GFAP (activation of astrocytes) [6, 10]: 4627.38±0.483 densitometry units
- Iba1 immunoreactivity in superficial layers of the dorsal horn ([7]; 1 mg/kg/d of FB1 with morphine): blocked
- spinal expression of IBa1 (activation of microglial cell) ([7]; morphine plus FB1 1 mg/kg/d, n=5): 275.53±0.053 densitometry units
- ceramide immunostaining ([8]; co-administered with morphine, FB1 1 mg/kg/d, myriocin 0.4 mg/kg/d, D609 40 mg/kg/d): attenuated; also recorded: abolished the presence of positive staining for ceramide

From patent publication US20120328602A1, “COMPOSITIONS AND METHODS FOR TREATING CONDITIONS ASSOCIATED WITH CERAMIDE BIOSYNTHESIS” (priority 2007, published 2012)
